Like-named read-outs stand apart in the source and are kept apart here.
How the values were obtained:
[1] = in vitro; conditions: human
[2] = in vitro; conditions: African green monkey
[3] = tested on: SARS-CoV-2 (hCoV-19/USA-WA1/2020) in Caco-2 cells; assay: microbe, parasite or virus in culture; conditions: Severe acute respiratory syndrome coronavirus 2, Caco-2, 72 h; for EC50: read-out: Caco-2 SARS-CoV-2 EC50; for EC90: read-out: Caco-2 SARS-CoV-2 EC90
[4] = tested on: SARS-CoV-2 (hCoV-19/USA-WA1/2020) in Calu-3 cells; assay: microbe, parasite or virus in culture; format: cell-based; conditions: for EC50: read-out: Calu-3 SARS-CoV-2 EC50; for EC90: read-out: Calu-3 SARS-CoV-2 EC90
[5] = cited from earlier work
[6] = in vitro; conditions: human, Caco-2
[7] = tested on: SARS-CoV-2 in Vero E6 cells; conditions: read-out: EC50, SARS-CoV-2 infectivity in Vero E6 cells; cited from earlier work
[8] = tested on: SARS-CoV-2 (hCoV-19/USA-WA1/2020) in Vero CCL-81 cells; assay: microbe, parasite or virus in culture; format: cell-based; conditions: for anti-SARS-CoV-2 activity (in words), concentrations up to 100 μM: Vero CCL-81 cells
[9] = tested on: CCRF-CEM cells; conditions: human
[10] = tested on: Vero E6 cells; conditions: read-out: CC50 in Vero E6 cells; cited from earlier work
[11] = tested on: Vero CCL-81 cells
[12] = 10 mg/kg (in cats); cited from earlier work
[13] = tested on: COVID-19 / SARS-CoV-2 infection; conditions: COVID-OUT, cited from earlier work
[14] = in vivo; cited from earlier work
[15] = tested on: Vero CCL-81 cells; assay: MTS cytotoxicity assay, Vero CCL-81 cells; conditions: up to 100 μM
[16] = cited from earlier work; remark: listed apart in the source
[17] = mice and rats; cited from earlier work
[18] = rats; cited from earlier work
[19] = monkey, in vivo, po; cited from earlier work
[20] = cynomolgus monkey, in vivo; cited from earlier work
[21] = in vitro; conditions: human; remark: listed apart in the source
[22] = in vitro; conditions: human; remark: listed apart in the source
[23] = in vitro; conditions: human; remark: listed apart in the source
[24] = tested on: SARS-CoV-2 (hCoV-19/USA-WA1/2020) in Caco-2 cells; conditions: Caco-2
[25] = remdesivir following IV infusion; cited from earlier work
[26] = dog, in vivo; cited from earlier work
[27] = human, in vivo
[28] = tested on: SARS-CoV-2 in Vero cells; conditions: read-out: EC50, virus replication in Vero cells; cited from earlier work
[29] = 20 mg/kg, once (dog or cat); Cmax × Fun
[30] = Severe acute respiratory syndrome coronavirus 2, Calu-3, 72 h
[31] = Severe acute respiratory syndrome coronavirus 2, Calu-3, MOI 0.01, 72 h, 2% FBS

With `C=CCc1ccc(O)c(-c2ccc(O)c(CC=C)c2)c1` [Honokiol] the CC50 ([1]; CEM CC50, 4 days) was 28.6 µM, the CC50 ([1]; CEM CC50 {Unbound}) was 26.7 µM and the CC50 [2] was 40.4 µM. For the same compound, the EC50 [3] was 9.6 µM, the EC90 [3] was 80.4 µM and the EC50 [4, 30] was 69.2 µM. For the same compound, the EC90 [4, 30] was 94 µM, the “Fun (unbound fraction of drug in plasma)” value ([5]; Table 1, ref column Refs of Table 1) was 0.36 and the CC50 [6] was 18.4 µM. The EC50 [7] was 13 µM, the EC50 ([8]; Severe acute respiratory syndrome coronavirus 2, 48 h, read-out: Vero CCL-81 SARS-CoV-2 EC50) was 20.1 µM and the EC90 ([8]; Severe acute respiratory syndrome coronavirus 2, 48 h, read-out: Vero CCL-81 SARS-CoV-2 EC90) was 84 µM. For the same compound, the “CEM CC50 {Unbound}” value [9] was 28.6 {26.8} μM and the CC50 [10] was 54 µM.

In the case of `CC(C)C[C@H](NC(=O)OCc1ccccc1)C(=O)N[C@@H](CC1CCNC1=O)C(O)S(=O)(=O)O` (stereo partly drawn) [GC376], the CC50 [11] is listed as > 100 µM, the Cmax [12] is listed as 1700 nM and the EC50 ([8]; read-out: Vero CCL-81 Cells EC50) is listed as 0.2 µM. For the same compound, the EC90 ([8]; read-out: Vero CCL-81 Cells EC90) was 0.6 µM.

In the case of `CN(C)C(=N)N=C(N)N` [metformin], the “cytotoxicity (in words), up to 100 μM” value ([11]; African green monkey) is given as “did not observe an EC50 or cytotoxicity”, the “absolute reduction in long COVID incidence compared with placebo” value [13] is given as 4.1% and the “reduction of the incidence of long COVID” value ([13]; outpatient treatment) is given as “about 41%”. For the same compound, the “plasma Cmax (bound + unbound)” value [14] was 10200 nM, the “anti-SARS-CoV-2 activity (in words), concentrations up to 100 μM” value (shortened to “anti-SARS-CoV-2 activity (in words)”) [8] was “inactive” and the “anti-SARS-CoV-2 activity (in words)” value ([8]; listed as Metformin) was “did not observe an EC50”.

For `c1coc(CNc2ncnc3[nH]cnc23)c1` [kinetin, N^6-furfurylaminopurine], the “cytotoxicity (in words), up to 100 μM” value [15] is given as “not cytotoxic”, the “bound to plasma proteins” value [16] is given as ~ 80% and the oral bioavailability [17] is given as 50%. The “antiviral activity in Vero CCL-81 cells (in words)” value ([8]; NAs and nucleoside-base precursors, evaluated up to 20 μM) was “lack of antiviral activity” and the “anti-SARS-CoV-2 activity (in words)” value [8] was “did not inhibit SARS-CoV-2”.

In the case of `C=CCc1ccc(O)c(-c2cc(CC=C)ccc2O)c1` [Magnolol], the oral bioavailability [18] is listed as 4%.

In the case of `N#C[C@@]1(c2ccc3c(N)ncnn23)O[C@H](CO)[C@@H](O)[C@H]1O` [GS-441524], the CC50 at 4 days [1] is reported as > 100 µM, the CC50 at 3 days [2] is reported as > 100 µM and the EC50 [3] is reported as 0.08 µM. The EC90 [3] was 1.4 µM, the oral bioavailability [19] was < 10% and the EC50 [4, 31] was 0.3 µM. The EC90 [4, 31] was 2.34 µM, the oral bioavailability [20] was “about 3%” and the “Fun (unbound fraction of drug in plasma)” value ([5]; plasma) was 0.79. The CC50 at 3 days [21] was > 100 µM, the CC50 at 3 days [6] was > 100 µM and the CC50 at 4 days [22] was > 100 µM. The CC50 at 5 days [23] was > 100 µM, the “Caco-2 Unbound Cmax/EC50” value [24] was 30 and the EC50 ([8]; Severe acute respiratory syndrome coronavirus 2, Table 1 drugs, MOI 0.1, 48 h, 2% FBS, read-out: Vero CCL-81 SARS-CoV-2 EC50) was 0.8 µM. The EC90 ([8]; Severe acute respiratory syndrome coronavirus 2, Table 1 drugs, MOI 0.1, 48 h, 2% FBS, read-out: Vero CCL-81 SARS-CoV-2 EC90) was 1.4 µM, the “plasma t1/2” value [25] was 6 to 7 h and the oral bioavailability [26] was ~89%. The “Cmax (μM) {unbound}” value [27] was 2.41 µM.

In the case of `CC(C)(Oc1ccc(C(=O)c2ccc(Cl)cc2)cc1)C(=O)O` [fenofibric acid], the EC50 [28] is listed as 7 µM.

For `Cc1cc(C2=NO[C@@](c3cc(Cl)c(Cl)c(Cl)c3)(C(F)(F)F)C2)sc1C(=O)NCC(=O)NCC(F)(F)F` [Lotilaner], the CC50 [2] was 44.3 µM, the “Cmax (μM) {unbound}” value [29] was 0.007 µM and the EC50 ([8]; Severe acute respiratory syndrome coronavirus 2, 48 h, read-out: Vero CCL-81 Cells EC50) was 1.9 µM. It also gave an EC90 ([8]; Severe acute respiratory syndrome coronavirus 2, 48 h, read-out: Vero CCL-81 Cells EC90) of 4.9 µM.
